Tests used:
[1] = target: T1, human CD73 (Homo sapiens, UniProt P21589); assay: Inhibitor activity against CD73 in cell based assay (CD73 expressing CHO-K1 cells); details: CHO-K1 cells expressing human CD73, 150 μM AMP, 4 hours of incubation; read-out: CHO-K1 CELL VARIANT: CD73 IC50
T1 construct: expressed in transfected cells
T1 sequence (P21589 27-549): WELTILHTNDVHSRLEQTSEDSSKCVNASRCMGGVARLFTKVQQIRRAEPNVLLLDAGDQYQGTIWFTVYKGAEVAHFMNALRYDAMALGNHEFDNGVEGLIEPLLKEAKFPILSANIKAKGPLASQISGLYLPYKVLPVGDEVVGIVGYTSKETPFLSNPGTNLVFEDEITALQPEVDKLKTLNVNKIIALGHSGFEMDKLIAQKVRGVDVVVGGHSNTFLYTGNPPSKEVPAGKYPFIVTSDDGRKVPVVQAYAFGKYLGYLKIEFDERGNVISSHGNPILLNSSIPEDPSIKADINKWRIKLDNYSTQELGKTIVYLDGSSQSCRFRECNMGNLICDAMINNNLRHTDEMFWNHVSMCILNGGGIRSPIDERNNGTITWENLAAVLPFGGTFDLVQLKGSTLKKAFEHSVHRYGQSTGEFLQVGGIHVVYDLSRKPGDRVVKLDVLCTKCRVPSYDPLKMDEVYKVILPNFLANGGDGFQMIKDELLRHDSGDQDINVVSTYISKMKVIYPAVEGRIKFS
Procedure, shortened: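 Stably transfected CHO-K1 cells expressing human CD73 (1×10^4/well) incubated 4 h with compound (8-point 1:3 titration, top 10 μM final, 0.2% DMSO) and 150 μM AMP. Residual AMP in supernatant measured by CellTiter-Glo luminescence with 1 μM ATP after 30 min at room temperature; IC50 by nonlinear regression of percent inhibition vs high/low controls.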

[2] = target: T2, Human CD73 (amino acid residues 27-549) (Homo sapiens, UniProt P21589); assay: CD73 enzymatic assay (luciferase-based indirect assay, CellTiter-Glo); type: biochemical; details: 0.4 nM CD73, 150 μM AMP, 1 hour at room temperature
T2 construct: Human CD73 (amino acid residues 27-549); His tag (N); made in house; host or cells: E. coli
T2 sequence (P21589 27-549): T1 sequence (P21589 27-549)
Procedure, shortened: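 His-tagged human CD73 (27-549) from E. coli, 0.4 nM, with 150 μM AMP in 50 mM HEPES pH 7.4, 0.01% Tween 20; 1 h at room temperature. AMP remaining read by CellTiter-Glo 2.0 luminescence with 1 μM final ATP after 30 min. IC50 from nonlinear regression of % inhibition.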

IC50 [1] [µM] | IC50 [2] [µM] | SMILES
0.001 to 10 | 0.001 to 10 | O=C(Nc1ccc(F)cc1)N[C@H]1CC[C@H](NC(=O)O[C@@H]2CCN(c3cn[nH]c(=O)c3Cl)C2)CC1 [P-0178, (R)-1-(5-chloro-6-oxo-1,6-dihydropyridazin-4-yl)pyrrolidin-3-yl ((1r,4R)-4-(3-(4-fluorophenyl)ureido)cyclohexyl)carbamate]
0.001 to 10 | 0.001 to 10 | CCCNC(=O)[C@H]1CC[C@@H](NC(=O)O[C@@H]2CCN(c3cn[nH]c(=O)c3Cl)C2)CC1 [P-0182, (R)-1-(5-chloro-6-oxo-1,6-dihydropyridazin-4-yl)pyrrolidin-3-yl ((1s,4S)-4-(propylcarbamoyl)cyclohexyl) carbamate]
0.001 to 10 | 0.001 to 10 | O=C(N[C@H]1CC[C@@H](C(=O)Nc2ccccc2)CC1)O[C@@H]1CCN(c2cn[nH]c(=O)c2Cl)C1 [P-0183, (R)-1-(5-chloro-6-oxo-1,6-dihydropyridazin-4-yl)pyrrolidin-3-yl ((1s,4S)-4-(phenylcarbamoyl)cyclohexyl) carbamate]
0.001 to 10 | 0.001 to 10 | O=C(N[C@H]1CC[C@H](NC(=O)c2ccccc2)CC1)O[C@@H]1CCN(c2cn[nH]c(=O)c2Cl)C1 [P-0184, (R)-1-(5-chloro-6-oxo-1,6-dihydropyridazin-4-yl)pyrrolidin-3-yl ((1r,4R)-4-benzamidocyclohexyl) carbamate]
0.001 to 10 | 0.001 to 10 | O=C(N[C@H]1CC[C@@H](NS(=O)(=O)c2ccc(F)cc2)CC1)O[C@@H]1CCN(c2cn[nH]c(=O)c2Cl)C1 [P-0185, (R)-1-(5-chloro-6-oxo-1,6-dihydropyridazin-4-yl)pyrrolidin-3-yl ((1s,4S)-4-((4-fluorophenyl)sulfonamido)cyclohexyl)carbamate]
0.001 to 10 | 0.001 to 10 | O=C(N[C@H]1CC[C@@H](NC(=O)c2ccccc2)CC1)O[C@@H]1CCN(c2cn[nH]c(=O)c2Cl)C1 [P-0186, (R)-1-(5-chloro-6-oxo-1,6-dihydropyridazin-4-yl)pyrrolidin-3-yl ((1s,4S)-4-benzamidocyclohexyl) carbamate]
0.001 to 10 | 0.001 to 10 | COC(=O)[C@H]1CC[C@H](NC(=O)O[C@@H]2CCN(c3cn[nH]c(=O)c3Cl)C2)CC1 [P-0187, methyl (1R,4r)-4-(((((R)-1-(5-chloro-6-oxo-1,6-dihydropyridazin-4-yl)pyrrolidin-3-yl)oxy)carbonyl)amino) cyclohexane-1-carboxylate]
0.001 to 10 | 0.001 to 10 | COC(=O)[C@H]1C[C@H](NC(=O)O[C@@H]2CCN(c3cn[nH]c(=O)c3Cl)C2)C1 [P-0188, methyl (1R,3r)-3-(((((R)-1-(5-chloro-6-oxo-1,6-dihydropyridazin-4-yl)pyrrolidin-3-yl)oxy)carbonyl)amino) cyclobutane-1-carboxylate]
0.001 to 10 | 0.001 to 10 | O=C(Nc1ccc(F)cc1)N[C@H]1CC[C@@H](NC(=O)O[C@@H]2CCN(c3cn[nH]c(=O)c3Cl)C2)CC1 [P-0189, (R)-1-(5-chloro-6-oxo-1,6-dihydropyridazin-4-yl)pyrrolidin-3-yl ((1s,4S)-4-(3-(4-fluorophenyl)ureido)cyclohexyl)carbamate]
0.001 to 10 | 0.001 to 10 | CCN(C)C(=O)[C@H]1CC[C@H](NC(=O)O[C@@H]2CCN(c3cn[nH]c(=O)c3Cl)C2)CC1 [P-0193, (R)-1-(5-chloro-6-oxo-1,6-dihydropyridazin-4-yl)pyrrolidin-3-yl ((1r,4R)-4-(ethyl(methyl)carbamoyl)cyclohexyl)carbamate]
0.001 to 10 | 0.001 to 10 | O=C(NC1CCCCC1)N[C@H]1CC[C@@H](NC(=O)O[C@@H]2CCN(c3cn[nH]c(=O)c3Cl)C2)CC1 [P-0197, (R)-1-(5-chloro-6-oxo-1,6-dihydropyridazin-4-yl)pyrrolidin-3-yl ((1s,4S)-4-(3-cyclohexylureido)cyclohexyl) carbamate]

Continued, compound first:

SMILES | IC50 [1] [µM] | IC50 [2] [µM]
O=C(N[C@H]1CC[C@H](NS(=O)(=O)c2ccccc2F)CC1)O[C@@H]1CCN(c2cn[nH]c(=O)c2Cl)C1 [P-0176, (R)-1-(5-chloro-6-oxo-1,6-dihydropyridazin-4-yl)pyrrolidin-3-yl ((1r,4R)-4-((2-fluorophenyl)sulfonamido)cyclohexyl)carbamate] | 0.001 to 10 | 0.001 to 10
O=C(NCC1(CCl)CC(NC(=O)O[C@@H]2CCN(c3cn[nH]c(=O)c3Cl)C2)C1)Nc1ccc(F)cc1 (stereo partly drawn) [P-0177, (R)-1-(5-chloro-6-oxo-1,6-dihydropyridazin-4-yl)pyrrolidin-3-yl (3-(chloromethyl)-3-((3-(4-fluorophenyl)ureido)methyl)cyclobutyl)carbamate] | 0.001 to 10 | 0.001 to 10
COC(=O)[C@H]1CC[C@@H](NC(=O)O[C@@H]2CCN(c3cn[nH]c(=O)c3Cl)C2)CC1 [P-0179, methyl (1S,4s)-4-(((((R)-1-(5-chloro-6-oxo-1,6-dihydropyridazin-4-yl)pyrrolidin-3-yl)oxy)carbonyl)amino) cyclohexane-1-carboxylate] | 0.001 to 10 | 0.001 to 10
O=C(N[C@H]1CC[C@@H](C(=O)O)CC1)O[C@@H]1CCN(c2cn[nH]c(=O)c2Cl)C1 [P-0180, (1S,4s)-4-(((((R)-1-(5-chloro-6-oxo-1,6-dihydropyridazin-4-yl)pyrrolidin-3-yl)oxy)carbonyl)amino) cyclohexane-1-carboxylic acid] | 10 to 100 | 0.001 to 10
NC(=O)[C@H]1CC[C@@H](NC(=O)O[C@@H]2CCN(c3cn[nH]c(=O)c3Cl)C2)CC1 [P-0181, (R)-1-(5-chloro-6-oxo-1,6-dihydropyridazin-4-yl)pyrrolidin-3-yl ((1s,4S)-4-carbamoylcyclohexyl) carbamate] | 0.001 to 10 | 0.001 to 10
O=C(N[C@H]1CC[C@H](C(=O)O)CC1)O[C@@H]1CCN(c2cn[nH]c(=O)c2Cl)C1 [P-0190, (1R,4r)-4-(((((R)-1-(5-chloro-6-oxo-1,6-dihydropyridazin-4-yl)pyrrolidin-3-yl)oxy)carbonyl)amino) cyclohexane-1-carboxylic acid] | 10 to 100 | 0.001 to 10
CCCNC(=O)[C@H]1CC[C@H](NC(=O)O[C@@H]2CCN(c3cn[nH]c(=O)c3Cl)C2)CC1 [P-0191, (R)-1-(5-chloro-6-oxo-1,6-dihydropyridazin-4-yl)pyrrolidin-3-yl ((1r,4R)-4-(propylcarbamoyl)cyclohexyl) carbamate] | 0.001 to 10 | 0.001 to 10
O=C(N[C@H]1CC[C@H](C(=O)NC2CC2)CC1)O[C@@H]1CCN(c2cn[nH]c(=O)c2Cl)C1 [P-0192, (R)-1-(5-chloro-6-oxo-1,6-dihydropyridazin-4-yl)pyrrolidin-3-yl ((1r,4R)-4-(cyclopropylcarbamoyl)cyclohexyl)carbamate] | 0.001 to 10 | 0.001 to 10
O=C(N[C@H]1CC[C@H](C(=O)Nc2ccccc2)CC1)O[C@@H]1CCN(c2cn[nH]c(=O)c2Cl)C1 [P-0194, (R)-1-(5-chloro-6-oxo-1,6-dihydropyridazin-4-yl)pyrrolidin-3-yl ((1r,4R)-4-(phenylcarbamoyl)cyclohexyl) carbamate] | 0.001 to 10 | 0.001 to 10
O=C(N[C@H]1CC[C@@H](NC(=O)c2ccc(F)cc2)CC1)O[C@@H]1CCN(c2cn[nH]c(=O)c2Cl)C1 [P-0195, (R)-1-(5-chloro-6-oxo-1,6-dihydropyridazin-4-yl)pyrrolidin-3-yl ((1s,4S)-4-(4-fluorobenzamido)cyclohexyl) carbamate] | 0.001 to 10 | 0.001 to 10
CC(=O)N[C@H]1CC[C@@H](NC(=O)O[C@@H]2CCN(c3cn[nH]c(=O)c3Cl)C2)CC1 [P-0196, (R)-1-(5-chloro-6-oxo-1,6-dihydropyridazin-4-yl)pyrrolidin-3-yl ((1s,4S)-4-acetamidocyclohexyl)carbamate] | 0.001 to 10 | 0.001 to 10
O=C(NC1CC2(C1)CN(C(=O)Nc1ccc(F)cc1)C2)O[C@@H]1CCN(c2cn[nH]c(=O)c2Cl)C1 [P-0198, (R)-1-(5-chloro-6-oxo-1,6-dihydropyridazin-4-yl)pyrrolidin-3-yl (2-((4-fluorophenyl)carbamoyl)-2-azaspiro[3.3]heptan-6-yl)carbamate] | 10 to 100 | 0.001 to 10
CCCNC(=O)[C@H]1C[C@H](NC(=O)O[C@@H]2CCN(c3cn[nH]c(=O)c3Cl)C2)C1 [P-0199, (R)-1-(5-chloro-6-oxo-1,6-dihydropyridazin-4-yl)pyrrolidin-3-yl ((1r,3R)-3-(propylcarbamoyl)cyclobutyl) carbamate] | 10 to 100 | 0.001 to 10
